The target in data set [1] is recombinant hNK1R expressed in CHO cells (Homo sapiens, UniProt P25103). Briefly: Intracellular calcium mobilization (FLIPR) in CHO-hNK1 cells. In kind it is cell-based. How it is done: (§1) CHO-hNK1 and CHO-hNK2 cells were seeded into black walled clear-bottom 384-well plates) at a density of 10,000 and 15,000 cells per well in 50 μL culture media, respectively, and grown overnight at 37° C. in a humidified CO2-incubator. Cells were washed in washing buffer using the EMBLA 384 instrument, leaving 20 μL of buffer per well after the final aspiration. Cells were then incubated at 37° C. with the cytoplasmic Ca2+ indicator Fluo-4 AM (final concentration 1 μM) in assay buffer (20 mM HEPES, 145 mM NaCl, 5 mM KCl, 5.5 mM glucose, 1 mM MgCl2 and 2 mM CaCl2, pH 7.4, 0.05% Pluronic F-127 and 0.1% BSA) containing 2.5 mM probenecid for […] (cell loading). Cells were then washed 3 times in washing buffer (20 mM HEPES, 145 mM NaCl, 5 mM KCl, 5.5 mM glucose, 1 mM MgCl2 and 2 mM CaCl2, pH 7.4 and 2.5 mM probenecid) using the EMBLA 384 instrument, leaving 30 μL of buffer in each well after the last wash. Loaded cell plates were transferred to the FLIPR machine and calcium responses were monitored as described below. A dual read-out FLIPR protocol was used, allowing for characterization of both agonist and antagonist profiles. For quality control, in each compound plate the signal was monitored by evaluating the responses to the reference standards (NKA and Substance P).
(§2) Concentration response curves of compounds were run in duplicate on two different occasions from the same stock solutions. Test solutions were prepared from 10 mM stock solutions in DMSO and 1 μL of each solution was stamped into V-bottom assay plates containing 49 μL assay buffer. The final concentration of DMSO was 0.5% in each well.
For orientation: A change in cytosolic calcium serves as a functional read-out for many receptors and channels.

The nature of data set [2]: Pharmacokinetics in rat plasma after cassette IV bolus dosing. The conditions noted are these: Sprague-Dawley, in vivo. How it is done: The concentrations of compounds (SEQ ID NOS: 1-11) were measured in rat plasma after intravenous (IV) bolus dosing to determine pharmacokinetic profiles of individual compounds.
Animal preparation: In vivo studies were performed in anesthetized adult Sprague Dawley rats. Rats were anesthetized with urethane (1.2-1.4 g/kg subcutaneous injection). Surgical procedures were then performed with the addition of isoflurane anesthesia (0.05-1.5% in 02) as needed. A venous cannula was inserted into the jugular vein for intravenous (IV) administration of compounds.
In vivo dosing and plasma sampling: Compounds were divided into two groups (soluble and insoluble). Each group was dosed as a cassette in which four compounds (100 μg/kg each compound) were combined into a single IV bolus injection to anesthetized adult Sprague-Dawley rats. Soluble compounds were dissolved in saline. Insoluble compounds were dissolved in a 10% ethanol/saline solution. Rats were cassette dosed based on weight using 0.1 mg/mL solutions of individual compounds. Blood samples (700 μL) were collected using a carotid artery cannula into EDTA tubes containing ascorbic acid (final concentration 1%), and plasma was isolated.
Bioanalytical assay: A reversed-phase HPLC with Turbo Ion Spray MS/MS detection method was developed for bioanalysis. Mass spec transition and settings were individually optimized for each compound and then compounds were cassetted for HPLC method development and optimization. [^13C9; ^15N] [Lys5,MeLeu9,Nle10]-NKA(4-10) was used as an internal standard (IS). Analyte-to-IS peak area ratios for individual compounds were used to create linear calibration curves (1-20 ng/mL) using 1/×2 weighted least-squares regression analysis for evaluation of method linearity, precision and accuracy. For plasma concentration measurements, plasma samples were spiked with IS, processed by extraction, and analyzed using LC-MS/MS. Positive (M+H)+ ions for individual compounds and IS were monitored in MRM mode.

The target of data set [3] is human NK1 Receptor (hNK1R) (Homo sapiens, UniProt P25103). The data set is described as follows: [3H]-septide radioligand competition binding to human recombinant NK1Rs (CHO-hNK1 membranes). How it is done: (§3) After removal of the supernatant the cell pellet was washed and collected by re-suspension in PBS and centrifugation.
(§4) Frozen pellets were thawed and homogenized in 10 volumes (w/v) of membrane preparation buffer (50 mM HEPES pH 7.4, 1 mM EDTA, 50 μg/mL bacitracin and protease inhibitors) using a Polytron Ultraturrax (twice for 15 s per cycle). […] Protein concentration was determined using BioRad Protein Assay (Milan, Italy) with a BSA standard curve.
(In a radioligand displacement assay an active substance lowers the binding of a labelled ligand.)

The target of data set [4] is T1, recombinant hNK2R expressed in CHO cells (Homo sapiens, UniProt P21452).
T1 sequence (P21452 1-398): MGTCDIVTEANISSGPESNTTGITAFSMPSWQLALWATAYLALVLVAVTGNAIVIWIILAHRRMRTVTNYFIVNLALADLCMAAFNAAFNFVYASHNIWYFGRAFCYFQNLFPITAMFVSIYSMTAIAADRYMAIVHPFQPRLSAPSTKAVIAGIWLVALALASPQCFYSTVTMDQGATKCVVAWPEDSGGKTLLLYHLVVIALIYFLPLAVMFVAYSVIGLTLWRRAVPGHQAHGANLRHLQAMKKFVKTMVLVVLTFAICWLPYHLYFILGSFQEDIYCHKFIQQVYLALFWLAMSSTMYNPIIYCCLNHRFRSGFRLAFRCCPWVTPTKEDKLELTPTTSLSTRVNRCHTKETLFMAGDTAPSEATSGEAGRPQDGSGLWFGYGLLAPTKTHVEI
Briefly: Intracellular calcium mobilization (FLIPR) in CHO-hNK2 cells. Format: cell-based. Conditions: for hNK2 selectivity ratio: ratio of EC50s hNK1R/hNK2R. How it is done:
as §1, §2

Data set [5] in a line: Saline solubility of heptapeptides. Format: physicochemical. How it is done:
Heptapeptides A-K shown below in Table 1 (SEQ ID NOs: 1-11) were synthesized according to standard Fmoc-mediated solid-phase techniques and purified under typical C18 reverse-phase conditions.
Compounds D-K were considered to be insoluble in saline (<1 mg/mL).

For data set [6], the target named is T2, human NK2 Receptor (hNK2R) (Homo sapiens, UniProt P21452).
T2 sequence (P21452 1-398): T1 sequence (P21452 1-398)
The data set is described as follows: [125I]-NKA radioligand competition binding to human recombinant NK2Rs (CHO-hNK2 membranes). Conditions: for hNK2 selectivity ratio: ratio of Kis hNK1R/hNK2R. On the procedure:
as §3, §4

Setting [7] is: calcium mobilization, CHO-hNK1 cells, read-out: hNK1 EC50.
[8] abbreviates: displacement of 5.0 nM [3H]-septide, CHO-hNK1 membranes, read-out: hNK1 binding Ki.
Setting [9] is: calcium mobilization, CHO-hNK2 cells, read-out: hNK2 EC50.
Where [10] appears, read: displacement of 0.1 nM [125I]-NKA, CHO-hNK2 membranes, read-out: hNK2 binding Ki.

The text below walks through data of patent US11352391B2, “Compositions for inducing urinary voiding and defecation” (Dignify Therapeutics, LLC, priority 2017, dated 2022).

Like-named read-outs stand apart in the source and are kept apart here. Where a SMILES comes first, the peptide text is derived from it. Where no end group is shown, it is not given here.

recombinant hNK1R expressed in CHO cells, sequence (P25103 whole entry): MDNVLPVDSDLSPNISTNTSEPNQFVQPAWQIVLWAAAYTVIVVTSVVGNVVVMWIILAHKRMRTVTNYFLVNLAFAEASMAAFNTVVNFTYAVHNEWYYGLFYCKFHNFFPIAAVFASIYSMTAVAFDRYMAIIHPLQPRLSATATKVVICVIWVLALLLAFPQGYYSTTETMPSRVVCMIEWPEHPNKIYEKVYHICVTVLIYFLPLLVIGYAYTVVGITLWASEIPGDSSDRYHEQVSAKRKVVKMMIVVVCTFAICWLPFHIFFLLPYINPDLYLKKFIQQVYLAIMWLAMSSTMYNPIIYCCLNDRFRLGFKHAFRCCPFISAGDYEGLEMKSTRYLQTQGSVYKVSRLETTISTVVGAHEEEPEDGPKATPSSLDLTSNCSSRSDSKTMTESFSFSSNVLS
human NK1 Receptor (hNK1R), sequence (P25103 whole entry): as above

As for `CSCC[C@H](NC(=O)[C@H](CC(C)C)N(C)C(=O)CNC(=O)[C@@H](NC(=O)[C@H](Cc1ccccc1)NC(=O)[C@H](CCCCN)NC(=O)[C@@H](N)CC(=O)O)C(C)C)C(N)=O` [A, Asp-Lys-Phe-Val-Gly-(NMe-Leu)-Met-NH2], the 50% effective concentration (EC50) in data set [1] is 0.95 nM; in data set [4] it was 0.14 nM. In data set [2] (100 ug/kg, cassette IV bolus 100 μg/kg, by 10 min post-dose, read-out: plasma concentration), the level at 10 min is less than 1 ng/mL. Also, the half-life in data set [2] (cassette IV bolus, 100 μg/kg each compound, read-out: plasma t1/2) was in the range of 0.2 to 1.2 min. Also, the inhibition constant Ki in data set [3] was 50.1 nM; in data set [6], 0.2 nM. Further, the hNK2 selectivity ratio in data set [4] worked out at 7; in data set [6] it was 248.89. Besides, the solubility in data set [5] is greater than 20000 µg/mL.
As for `CSCC[C@H](NC(=O)[C@H](CC(C)C)N(C)C(=O)CNC(=O)[C@@H](NC(=O)[C@H](Cc1ccccc1)NC(=O)[C@H](CCCNC(=N)N)NC(=O)[C@@H](N)CC(=O)O)C(C)C)C(N)=O` [C, Asp-Arg-Phe-Val-Gly-(NMe-Leu)-Met-NH2] (HELM PEPTIDE1{D.R.F.V.G.[meL].M.[am]}$$$$V2.0; N-terminus assumed), the half-maximal effective concentration (EC50) in data set [1] (setting [7]) worked out at 0.3 nM; in data set [4] (setting [9]), 0.16 nM. For the same compound, the Ki in data set [3] (setting [8]) stood at 20.9 nM; in data set [6] (setting [10]) it was 0.12 nM. The hNK2 selectivity ratio was found to be 2 in data set [4] and 167.49 in data set [6]. In data set [5], this compound had a solubility greater than 20000 µg/mL.
For `CSCC[C@H](NC(=O)[C@H](CC(C)C)NC(=O)CNC(=O)[C@@H](NC(=O)[C@H](Cc1ccccc1)NC(=O)[C@H](CCCCN)NC(=O)[C@@H](N)CC(=O)O)C(C)C)C(N)=O` [D, Asp-Lys-Phe-Val-Gly-Leu-Met-NH2], the 50% effective concentration (EC50) in data set [1] (setting [7]) was 0.41 nM; in data set [4] (setting [9]), 0.09 nM. The compound also returned a solubility in data set [5] of less than 1000 µg/mL.
For `CCCC[C@H](NC(=O)[C@H](CC(C)C)NC(=O)CNC(=O)[C@@H](NC(=O)[C@H](Cc1ccccc1)NC(=O)[C@H](CCCCN)NC(=O)[C@@H](N)CC(=O)O)C(C)C)C(N)=O` [F, Asp-Lys-Phe-Val-Gly-Leu-Nle-NH2], the 50% effective concentration (EC50) in data set [1] (setting [7]) came out at 2.36 nM; in data set [4] (setting [9]) it was 0.38 nM. The figures for the Ki in data set [3] and in data set [6] were 224 nM and 2.75 nM, respectively. Further, the hNK2 selectivity ratio in data set [4] was 6; in data set [6] it was 81.47. Also, in data set [5], the solubility is less than 1000 µg/mL.
On to `CSCC[C@H](NC(=O)[C@H](CC(C)C)NC(=O)CCNC(=O)[C@@H](NC(=O)[C@H](Cc1ccccc1)NC(=O)[C@H](CCCNC(=N)N)NC(=O)[C@@H](N)CC(=O)O)C(C)C)C(N)=O` [I, Asp-Arg-Phe-Val-(β-Ala)-Leu-Met-NH2] (HELM PEPTIDE1{D.R.F.V.[bAla].L.M.[am]}$$$$V2.0; N-terminus assumed), for which the EC50 is 1.83 nM in data set [1] (setting [7]) and 0.15 nM in data set [4] (setting [9]). The Ki in data set [3] (setting [8]) was determined as 95.5 nM; in data set [6] (setting [10]), 0.88 nM. For the same compound, the hNK2 selectivity ratio in data set [4] was 12; in data set [6], 108.27. In data set [5], this compound yielded a solubility of less than 1000 µg/mL.
For `CCCC[C@H](NC(=O)[C@H](CC(C)C)NC(=O)CNC(=O)[C@@H](NC(=O)[C@H](Cc1ccccc1)NC(=O)[C@H](CCCNC(=N)N)NC(=O)[C@@H](N)CC(=O)O)C(C)C)C(N)=O` [J, Asp-Arg-Phe-Val-Gly-Leu-Nle-NH2] (HELM PEPTIDE1{D.R.F.V.G.L.[Nle].[am]}$$$$V2.0; N-terminus assumed), the values for the half-maximal effective concentration (EC50) in data set [1] (setting [7]) and in data set [4] (setting [9]) were 1.71 nM and 0.2 nM, respectively. Also, the Ki in data set [3] was found to be 126 nM; in data set [6], 1.74 nM. Moreover, the hNK2 selectivity ratio in data set [4] is on record as 9; in data set [6], 72.53. The compound also registered a solubility in data set [5] of less than 1000 µg/mL.
Consider `CCCC[C@H](NC(=O)[C@H](CC(C)C)NC(=O)CCNC(=O)[C@@H](NC(=O)[C@H](Cc1ccccc1)NC(=O)[C@H](CCCNC(=N)N)NC(=O)[C@@H](N)CC(=O)O)C(C)C)C(N)=O` [K, Asp-Arg-Phe-Val-(β-Ala)-Leu-Nle-NH2] (HELM PEPTIDE1{D.R.F.V.[bAla].L.[Nle].[am]}$$$$V2.0; N-terminus assumed), for which the values for the EC50 in data set [1] (setting [7]) and in data set [4] (setting [9]) were 29.5 nM and 1.16 nM, respectively. In data set [2] (iv), this compound displayed a half-life of 3.3 to 4.7 min. Moreover, the figures for the inhibition constant Ki in data set [3] (setting [8]) and in data set [6] (setting [10]) were 1200 nM and 6.85 nM, respectively. Besides, the hNK2 selectivity ratio in data set [4] is listed as 25; in data set [6] it was 175.59. Moreover, the solubility in data set [5] was less than 1000 µg/mL.
With “DRFVGLM-NH2 [H, Asp-Arg-Phe-Val-Gly-Leu-Met-NH2]”, the EC50 was 0.16 nM in data set [1] (setting [7]) and 0.19 nM in data set [4] (setting [9]). The Ki turned out to be 8.32 nM in data set [3] and 0.31 nM in data set [6]. Moreover, the hNK2 selectivity ratio in data set [4] was found to be 0.8; in data set [6] it was 27.10. The same compound displayed a solubility in data set [5] of less than 1000 µg/mL.

By EC50 is commonly meant the concentration at which the effect is half-maximal. The Ki is a measure of affinity in units of concentration, obtained from inhibition or displacement. Usually solubility stands for how much of the substance goes into solution per volume.
